Results as given in PubChem BioAssay (NCI).
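These data come from cells grown in 96-well plates and exposed to compound for 48 hours at five concentrations. At the TGI there is no net growth.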

Tests used:
Experiment in all cases: NCI-60 cell line screen, 48 h
[1] = test system: NCI-H226 lung
[2] = test system: HOP-18 NSCLC
[3] = test system: SF-295 CNS
[4] = test system: UO-31 renal
[5] = test system: ACHN renal
[6] = test system: DMS 114 small cell lung
[7] = test system: SK-MEL-2 melanoma
[8] = test system: OVCAR-3 ovarian
[9] = test system: UACC-257 melanoma
[10] = test system: SN12C renal
[11] = test system: KM20L2 colon
[12] = test system: HL-60(TB) leukemia
[13] = test system: M19-MEL melanoma
[14] = test system: EKVX NSCLC
[15] = test system: KM12 colon
[16] = test system: SNB-19 CNS
[17] = test system: OVCAR-4 ovarian
[18] = test system: OVCAR-8 ovarian
[19] = test system: LOX IMVI melanoma
[20] = test system: CCRF-CEM leukemia
[21] = test system: HCT-15 colon
[22] = test system: M14 melanoma
[23] = test system: SNB-75 CNS
[24] = test system: SK-OV-3 ovarian
[25] = test system: A549 NSCLC
[26] = test system: HCC-2998 colon
[27] = test system: SF-268 CNS
[28] = test system: RPMI-8226 leukemia
[29] = test system: A498 renal
[30] = test system: HCT-116 colon
[31] = test system: DMS 273 small cell lung
[32] = test system: SR leukemia
[33] = test system: NCI-H460 lung
[34] = test system: HT29 colon
[35] = test system: DLD-1 colon
[36] = test system: UACC-62 melanoma
[37] = test system: NCI-H23 lung
[38] = test system: MALME-3M melanoma
[39] = test system: NCI-H522 lung
[40] = test system: K-562 leukemia
[41] = test system: 786-0 renal
[42] = test system: IGROV1 ovarian
[43] = test system: SNB-78 CNS
[44] = test system: SK-MEL-5 melanoma
[45] = test system: COLO 205 colon
[46] = test system: SK-MEL-28 melanoma
[47] = test system: CAKI-1 renal
[48] = test system: HOP-62 NSCLC
[49] = test system: RXF 393 renal
[50] = test system: TK-10 renal
[51] = test system: SW-620 colon
[52] = test system: U251 CNS
[53] = test system: MOLT-4 leukemia
[54] = test system: SF-539 CNS
[55] = test system: XF 498 CNS
[56] = test system: LXFL 529 NSCLC
[57] = test system: OVCAR-5 ovarian
[58] = test system: RXF-631 renal
[59] = test system: HOP-92 NSCLC

## O=C(CN(c1ccccc1)c1ccccc1)N1c2ccccc2C2C=CC=CC21 (stereo not drawn)
[1]
  TGI: 44.6 µM
[2]
  TGI: 74.9 µM
[3]
  TGI: 58.8 µM
[4]
  TGI: > 49.9 µM
[5]
  TGI: > 59.1 µM
[6]
  TGI: 23.1 µM
[7]
  TGI: 38.8 µM
[8]
  TGI: 44.6 µM
[9]
  TGI: 50.1 µM
[10]
  TGI: 34.4 µM
[11]
  TGI: 55.4 µM
[12]
  TGI: 25.7 µM
[13]
  TGI: > 57.4 µM
[14]
  TGI: > 59.4 µM
[15]
  TGI: 96.8 µM
[16]
  TGI: 38.1 µM
[17]
  TGI: > 100 µM
[18]
  TGI: 53.5 µM
[19]
  TGI: 44.5 µM
[20]
  TGI: > 36.3 µM
[21]
  TGI: 32.1 µM
[22]
  TGI: > 57.3 µM
[23]
  TGI: 52.3 µM
[24]
  TGI: > 56.4 µM
[25]
  TGI: > 54.9 µM
[26]
  TGI: 22.7 µM
[27]
  TGI: > 57 µM
[28]
  TGI: > 28.1 µM
[29]
  TGI: 77.4 µM
[30]
  TGI: 45.2 µM
[31]
  TGI: > 60.3 µM
[32]
  TGI: > 21.4 µM
[33]
  TGI: 36.1 µM
[34]
  TGI: > 56.5 µM
[35]
  TGI: > 57.5 µM
[36]
  TGI: 50.6 µM
[37]
  TGI: 53.5 µM
[38]
  TGI: 47.1 µM
[39]
  TGI: 49 µM
[40]
  TGI: > 51.5 µM
[41]
  TGI: 56.3 µM
[42]
  TGI: 47.3 µM
[43]
  TGI: > 58.7 µM
[44]
  TGI: 29.9 µM
[45]
  TGI: 24.7 µM
[46]
  TGI: > 56 µM
[47]
  TGI: 32.2 µM
[48]
  TGI: 41.5 µM
[49]
  TGI: > 54.7 µM
[50]
  TGI: > 57.2 µM
[51]
  TGI: > 53.5 µM
[52]
  TGI: > 56.5 µM
[53]
  TGI: > 22.6 µM
[54]
  TGI: 43.8 µM
[55]
  TGI: 53.2 µM
[56]
  TGI: 34.6 µM
[57]
  TGI: > 57.8 µM

## CCC1CN2CCc3cc(OC)c(OC)cc3C2CC1CC1c2cc(OC)c(OC)cc2CCN1C(=O)C1CCCN1 (stereo not drawn)
[1]
  TGI: 96.7 µM
[2]
  TGI: > 100 µM
[3]
  TGI: > 100 µM
[4]
  TGI: 47.4 µM
[5]
  TGI: > 100 µM
[7]
  TGI: 68.7 µM
[8]
  TGI: 90 µM
[9]
  TGI: 41 µM
[10]
  TGI: > 100 µM
[12]
  TGI: 43.9 µM
[13]
  TGI: 36.6 µM
[14]
  TGI: > 100 µM
[15]
  TGI: > 100 µM
[16]
  TGI: > 100 µM
[58]
  TGI: 90.8 µM
[17]
  TGI: 87.9 µM
[18]
  TGI: > 100 µM
[19]
  TGI: 72.4 µM
[20]
  TGI: 64.8 µM
[21]
  TGI: > 100 µM
[22]
  TGI: 27.6 µM
[23]
  TGI: > 100 µM
[24]
  TGI: 98.5 µM
[25]
  TGI: 78.1 µM
[26]
  TGI: 58.6 µM
[27]
  TGI: 65.2 µM
[28]
  TGI: > 100 µM
[29]
  TGI: 56.6 µM
[30]
  TGI: 55 µM
[31]
  TGI: > 100 µM
[32]
  TGI: 85.1 µM
[33]
  TGI: 74.8 µM
[34]
  TGI: > 100 µM
[35]
  TGI: 77.4 µM
[37]
  TGI: > 100 µM
[38]
  TGI: 37.3 µM
[39]
  TGI: 35.3 µM
[40]
  TGI: 51.4 µM
[41]
  TGI: 54.8 µM
[42]
  TGI: 71.7 µM
[43]
  TGI: > 100 µM
[44]
  TGI: 31.3 µM
[45]
  TGI: 25.7 µM
[59]
  TGI: > 100 µM
[46]
  TGI: 50.9 µM
[47]
  TGI: > 100 µM
[48]
  TGI: 71.2 µM
[49]
  TGI: 73.8 µM
[50]
  TGI: > 100 µM
[51]
  TGI: > 100 µM
[52]
  TGI: 69.4 µM
[53]
  TGI: 85.1 µM
[54]
  TGI: 37.8 µM
[55]
  TGI: 39.2 µM
[56]
  TGI: 64.4 µM
[57]
  TGI: > 100 µM
